# Reference: patent US20090176811A1, “Substituted 5,6,7,8-Tetrahydro-pyrido[4,3-d]pyrimidine-2-yl Compounds and 5,6,7,8-Tetrahydro-quinazoline-2-yl Compounds” (GRUENENTHAL GmbH, priority 2004, published 2009)
# What was measured:
# [1] = target: T1, mGluR5 receptor (Sus scrofa, UniProt I3LUI7); assay: Affinity for the mGluR5 receptor ([3H]-MPEP binding, pig brain homogenate); conditions: 10 μM compound, 15 nM [3H]-MPEP
# T1 construct: 450 μg of protein from brain homogenate is incubated; from tissue; host or cells: pig brain hemispheres without medulla, cerebellum and pons
# T1 sequence (I3LUI7 19-1212): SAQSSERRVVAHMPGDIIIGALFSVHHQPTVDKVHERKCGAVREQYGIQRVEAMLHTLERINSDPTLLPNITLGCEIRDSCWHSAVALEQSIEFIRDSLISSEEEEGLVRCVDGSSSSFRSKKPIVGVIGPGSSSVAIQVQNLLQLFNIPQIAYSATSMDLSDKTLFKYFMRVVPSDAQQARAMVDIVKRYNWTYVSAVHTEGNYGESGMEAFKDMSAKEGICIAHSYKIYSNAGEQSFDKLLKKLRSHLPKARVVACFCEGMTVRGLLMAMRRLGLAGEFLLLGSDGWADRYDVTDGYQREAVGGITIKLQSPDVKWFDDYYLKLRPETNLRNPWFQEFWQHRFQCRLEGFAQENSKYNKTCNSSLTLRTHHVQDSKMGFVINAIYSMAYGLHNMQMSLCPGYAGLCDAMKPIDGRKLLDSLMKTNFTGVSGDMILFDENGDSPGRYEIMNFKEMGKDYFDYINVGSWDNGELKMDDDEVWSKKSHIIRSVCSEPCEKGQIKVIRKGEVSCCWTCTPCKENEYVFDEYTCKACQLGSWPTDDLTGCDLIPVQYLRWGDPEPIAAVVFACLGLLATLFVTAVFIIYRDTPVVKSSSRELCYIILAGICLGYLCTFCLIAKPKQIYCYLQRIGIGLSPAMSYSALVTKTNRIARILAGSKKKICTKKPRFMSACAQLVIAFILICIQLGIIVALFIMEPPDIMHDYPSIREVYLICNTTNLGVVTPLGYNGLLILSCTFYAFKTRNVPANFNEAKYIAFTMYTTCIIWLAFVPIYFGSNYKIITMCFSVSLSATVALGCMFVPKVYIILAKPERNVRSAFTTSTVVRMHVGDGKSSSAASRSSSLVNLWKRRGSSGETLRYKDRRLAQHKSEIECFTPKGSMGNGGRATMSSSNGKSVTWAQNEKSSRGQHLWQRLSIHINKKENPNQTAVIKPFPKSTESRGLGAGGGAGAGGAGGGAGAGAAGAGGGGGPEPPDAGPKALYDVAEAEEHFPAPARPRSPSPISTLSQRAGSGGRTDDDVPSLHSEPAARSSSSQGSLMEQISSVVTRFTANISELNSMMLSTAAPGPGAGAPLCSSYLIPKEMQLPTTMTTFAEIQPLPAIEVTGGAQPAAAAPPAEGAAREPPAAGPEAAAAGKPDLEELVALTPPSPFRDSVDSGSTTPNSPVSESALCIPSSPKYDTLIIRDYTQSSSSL
# Protocol: III. Method for Determining Affinity for the mGluR5 Receptor
# Pig brain homogenate is produced by homogenisation (Polytron Pt 3000, Kinematica AG, 10,000 rpm (revolutions per minute) for 90 seconds) of pig brain hemispheres without medulla, cerebellum and pons in a buffer of pH 8.0 (30 mM Hepes, Sigma, order number H3375+1 tablet Complete Roche Diagnostics, order number 1836145 made up to 100 ml) in a ratio of 1:20 (brain weight/volume) and differential centrifugation at 900 g and 40,000 g. 450 μg of protein from brain homogenate is incubated in each case in 250 μl incubation batches in 96-well microtitre plates with 15 nM ^3[H]-MPEP (Tocris, order number R1212) and the compounds to be investigated (in each case 10 μM in the test) in the above-stated buffer at room temperature for 60 minutes.
# The batches are then filtered with the assistance of a Brandel Cell Harvester (Brandel, Grade Robotic 9600) on Unifilter plates with glass filter mats (Perkin Elmer, order number 6005177) and then rewashed 3 times with buffer of the above-stated composition using 250 μl per sample. The filter plates are then dried for 60 minutes at 55° C. Then 30 μl of Ultima Gold scintillating material (Packard BioScience, order number 6013159) is added per well and after 3 hours the samples are measured using the B counter ([…], Perkin Elmer). Nonspecific binding is determined by the addition of 10 μM 2-methyl-6-(phenylethynyl)-pyridine (Tocris, order number 1212).
# [2] = target: T2, 5-HT transporter (Rattus norvegicus, UniProt P31652); assay: 5-HT uptake inhibition in rat brain synaptosomes (medulla and pons); type: biochemical
# T2 construct: from tissue; host or cells: rat medulla and pons synaptosomes (P2 fraction)
# T2 sequence (P31652 whole entry): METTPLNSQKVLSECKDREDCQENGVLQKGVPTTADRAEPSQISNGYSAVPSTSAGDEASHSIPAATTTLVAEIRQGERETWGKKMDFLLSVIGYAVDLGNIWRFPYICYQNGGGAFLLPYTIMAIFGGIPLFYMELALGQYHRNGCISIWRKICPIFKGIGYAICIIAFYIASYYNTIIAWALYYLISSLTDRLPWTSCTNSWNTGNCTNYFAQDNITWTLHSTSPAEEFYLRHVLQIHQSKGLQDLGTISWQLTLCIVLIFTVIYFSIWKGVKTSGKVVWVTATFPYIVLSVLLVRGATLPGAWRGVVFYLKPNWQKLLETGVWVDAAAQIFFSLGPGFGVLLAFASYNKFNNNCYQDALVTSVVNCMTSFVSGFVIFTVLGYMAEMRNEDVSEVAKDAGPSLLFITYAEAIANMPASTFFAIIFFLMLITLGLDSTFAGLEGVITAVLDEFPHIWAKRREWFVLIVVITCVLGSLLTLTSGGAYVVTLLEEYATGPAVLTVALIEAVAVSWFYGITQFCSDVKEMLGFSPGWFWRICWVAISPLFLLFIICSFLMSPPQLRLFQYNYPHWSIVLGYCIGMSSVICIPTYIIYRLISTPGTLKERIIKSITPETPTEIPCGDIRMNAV
# From the text: (§1) I. Method for Determining Noradrenalin and 5-HT Uptake Inhibition:
# (§2) Synaptosomes from rat brain regions are freshly isolated for in vitro studies, as described in the publication “The isolation of nerve endings from brain” by E. G. Gray and V. P. Whittaker, J. Anatomy 96, pages 79-88, 1962. The corresponding literature description is hereby introduced as a reference and is deemed to be part of the disclosure.
# (§3) The tissue (hypothalamus for the determination of noradrenalin uptake inhibition and medulla and pons for the determination of 5-HT uptake inhibition) is homogenised in ice-cooled 0.32 M sucrose (100 mg of tissue/1 mL) in a glass homogeniser with Teflon pestle using five complete up and down strokes at 840 revolutions/minute.
# (§4) The homogenate is centrifuged at 4° C. for 10 minutes at 1000 g. After subsequent centrifugation at 17000 g for 55 minutes, the synaptosomes (P2 fraction) are obtained, which are resuspended in 0.32 M […] (0.5 mL/100 mg of original weight).
# (§5) The particular uptake is measured in a 96-well microtitre plate. The volume is 250 μl and the incubation proceeds at room temperature (approx. 20-25° C.) under an O2 atmosphere.
# (§6) The incubation time is 7.5 minutes for [^3H]-NA and 5 minutes for [^3H]-5-HT.
# (§7) The 96 samples are then filtered through a Unifilter GF/B microtitre plate (Packard) and washed with 200 mL of incubated buffer using a “Brabdel MPXRI-96T Cell-Harvester”. The Unifilter GF/B plate is dried for 1 hour at 55° C. The plate is then sealed with a Back seal (Packard) and 35 μl of scintillation fluid are added per well (Ultima Gold, Packard). After sealing with a top seal (Packard) and establishing an equilibrium (around 5 hours), radioactivity is determined in a “Trilux 1450 Microbeta” (Wallac).
# (§8) The quantity of protein used in the above determination corresponds to the values known from the literature, as for example described in “Protein measurement with the folin phenol reagent”, Lowry et al., J. Biol. Chem., 193, 265-275, 1951.
# (§9) A detailed description of the method may additionally be found in the literature, for example in M. Ch. Frink, H.-H. Hennies, W. Engelberger, M. Haurand and B. Wilffert (1996) Arzneim.-Forsch./Drug Res. 46 (III), 11, 1029-1036.
# (§10) The corresponding literature descriptions are hereby introduced in each case as a reference and are deemed to be part of the present disclosure.
# (§11) The following characteristics were determined for the NA or 5-HT transporter: […]
# [3] = target: T3, NA transporter (Rattus norvegicus, UniProt Q63380); assay: Noradrenalin uptake inhibition in rat brain synaptosomes (hypothalamus); type: biochemical
# T3 construct: from tissue; host or cells: rat hypothalamus synaptosomes (P2 fraction)
# T3 sequence (Q63380 1-617): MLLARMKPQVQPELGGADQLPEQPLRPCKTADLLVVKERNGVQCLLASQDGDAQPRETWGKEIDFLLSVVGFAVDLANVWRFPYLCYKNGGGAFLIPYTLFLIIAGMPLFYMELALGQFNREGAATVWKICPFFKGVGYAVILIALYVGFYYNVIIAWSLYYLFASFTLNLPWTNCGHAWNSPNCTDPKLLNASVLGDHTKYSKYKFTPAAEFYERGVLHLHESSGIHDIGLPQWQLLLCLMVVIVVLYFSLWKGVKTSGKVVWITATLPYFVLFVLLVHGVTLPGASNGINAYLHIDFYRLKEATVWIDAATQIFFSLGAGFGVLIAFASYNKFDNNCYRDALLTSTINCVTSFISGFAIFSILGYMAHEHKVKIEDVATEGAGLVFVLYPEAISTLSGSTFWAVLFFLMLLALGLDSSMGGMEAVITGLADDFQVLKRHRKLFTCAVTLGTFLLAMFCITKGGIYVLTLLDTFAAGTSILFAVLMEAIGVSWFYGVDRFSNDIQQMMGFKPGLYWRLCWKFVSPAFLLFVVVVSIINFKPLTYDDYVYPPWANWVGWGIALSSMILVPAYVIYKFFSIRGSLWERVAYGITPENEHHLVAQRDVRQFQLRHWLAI
# From the text: as §1, §2, §3, §4, §5, §6, §7, §8, §9, §10, §11
inhibition at 10 µM [1],SMILES,inhibition at 1 µM [2],inhibition at 10 µM [3]
33.1%,"O=C(Nc1ncc2c(n1)CCC(NS(=O)(=O)c1ccc(Cl)s1)C2)c1ccc(F)cc1 (stereo not shown) [Example 202, N-[6-(5-chloro-thiophene-2-sulfonylamino)-5,6,7,8-tetrahydro-quinazolin-2-yl]-4-fluoro-benzamide]",,
36.4%,"O=C(CCCCCNC(=O)OCc1ccccc1)NC1CCc2nc(NC(=O)c3ccc(F)cc3)ncc2C1 (stereo not shown) [Example 181, {5-[2-(4-fluoro-benzoylamino)-5,6,7,8-tetrahydro-quinazolin-6-ylcarbamoyl]-pentyl}-carbamic acid benzyl ester]",,
40.5%,"CC(C)(C)c1ccc(C(=O)Nc2ncc3c(n2)CCN(C(=O)c2csc(-c4ccccc4)n2)C3)cc1 [Example 29, 4-tert-butyl-N-[6-(2-phenyl-thiazole-4-carbonyl)-5,6,7,8-tetrahydro-pyrido[4,3-d]pyrimidin-2-yl]-benzamide]",,
45.3%,"O=C(Nc1ncc2c(n1)CCN(S(=O)(=O)Cc1ccccc1)C2)c1ccc(F)cc1 [Example 178, 4-fluoro-N-(6-phenylmethanesulfonyl-5,6,7,8-tetrahydro-pyrido[4,3-d]pyrimidin-2-yl)-benzamide]",,
,"O=C(Nc1ncc2c(n1)CCN(C(=O)Cc1ccc(Cl)cc1)C2)c1ccc(Cl)c(Cl)c1 [Example 126, 3,4-dichloro-N-{6-[2-(4-chloro-phenyl)-acetyl]-5,6,7,8-tetrahydro-pyrido[4,3-d]pyrimidin-2-yl}-benzamide]",55%,89%
,"O=C(Nc1ncc2c(n1)CCN(C(=O)c1sc3ccccc3c1Cl)C2)c1cccs1 [Example 110, thiophene-2-carboxylic acid [6-(3-chloro-benzo[b]thiophene-2-carbonyl)-5,6,7,8-tetrahydro-pyrido[4,3-d]pyrimidin-2-yl]-amide]",96%,75%
39.6%,"CCCC(=O)Nc1ncc2c(n1)CCC(NS(=O)(=O)c1cccc(C)c1)C2 (stereo not shown) [Example 146, N-[6-(toluene-3-sulfonylamino)-5,6,7,8-tetrahydro-quinazolin-2-yl]-butyramide]",,
,"O=C(Nc1ncc2c(n1)CCN(S(=O)(=O)c1cccc(Br)c1)C2)c1cccc(Cl)c1 [Example 125, N-[6-(3-bromo-benzenesulfonyl)-5,6,7,8-tetrahydro-pyrido[4,3-d]pyrimidin-2-yl]-3-chloro-benzamide]",43%,70%
,"Cc1ccc(C(=O)N2CCc3nc(NC(=O)c4ccc(C(C)(C)C)cc4)ncc3C2)cc1[N+](=O)[O-] [Example 92, 4-tert-butyl-N-[6-(4-methyl-3-nitro-benzoyl)-5,6,7,8-tetrahydro-pyrido[4,3-d]pyrimidin-2-yl]-benzamide]",66%,35%
,"CCc1ccc(C(=O)Nc2ncc3c(n2)CCN(C(=O)c2ccc(Cl)c(Cl)c2)C3)cc1 [Example 101, N-[6-(3,4-dichloro-benzoyl)-5,6,7,8-tetrahydro-pyrido[4,3-d]pyrimidin-2-yl]-4-ethyl-benzamide]",65%,84%
,"O=C(Nc1ncc2c(n1)CCN(S(=O)(=O)c1ccc(Cl)s1)C2)c1cccc2ccccc12 [Example 117, naphthalene-1-carboxylic acid [6-(5-chloro-thiophene-2-sulfonyl)-5,6,7,8-tetrahydro-pyrido[4,3-d]pyrimidin-2-yl]-amide]",32%,31%
,"Cc1cc(C)c(C)c(S(=O)(=O)N2CCc3nc(NC(=O)c4cccs4)ncc3C2)c1C [Example 99, thiophene-2-carboxylic acid [6-(2,3,5,6-tetramethyl-benzenesulfonyl)-5,6,7,8-tetrahydro-pyrido[4,3-d]pyrimidin-2-yl]-amide]",41%,56%
,"O=C(Nc1ncc2c(n1)CCN(C(=O)Cc1c(Cl)cccc1Cl)C2)c1cccc(Cl)c1 [Example 187, 3-chloro-N-{6-[2-(2,6-dichloro-phenyl)-acetyl]-5,6,7,8-tetrahydro-pyrido[4,3-d]pyrimidin-2-yl}-benzamide]",29%,100%
,"CC(C)(C)c1ccc(C(=O)Nc2ncc3c(n2)CCN(S(=O)(=O)c2ccc([N+](=O)[O-])cc2)C3)cc1 [Example 83, 4-tert-butyl-N-[6-(4-nitro-benzenesulfonyl)-5,6,7,8-tetrahydro-pyrido[4,3-d]pyrimidin-2-yl]-benzamide]",39%,77%
,"O=C(Nc1ncc2c(n1)CCN(C(=O)c1ccc(-c3cccs3)cc1)C2)c1cc(Cl)cc(Cl)c1 [Example 144, 3,5-dichloro-N-[6-(4-thiophen-2-yl-benzoyl)-5,6,7,8-tetrahydro-pyrido[4,3-d]pyrimidin-2-yl]-benzamide]",42%,67%
,"Cc1ccccc1C(=O)N1CCc2nc(NC(=O)c3cccc(Cl)c3)ncc2C1 [Example 109, 3-chloro-N-[6-(2-methyl-benzoyl)-5,6,7,8-tetrahydro-pyrido[4,3-d]pyrimidin-2-yl]-benzamide]",30%,92%
,"O=C(Nc1ncc2c(n1)CCN(C(=O)C1=Cc3ccccc3OC1)C2)c1ccc(F)c(F)c1 [Example 175, N-[6-(2H-chromene-3-carbonyl)-5,6,7,8-tetrahydro-pyrido[4,3-d]pyrimidin-2-yl]-3,4-difluoro-benzamide]",32%,46%
,"COc1ccc(C(=O)N2CCc3nc(NC(=O)c4cccc(Cl)c4)ncc3C2)cc1OC [Example 119, 3-chloro-N-[6-(3,4-dimethoxy-benzoyl)-5,6,7,8-tetrahydro-pyrido[4,3-d]pyrimidin-2-yl]-benzamide]",34%,72%
,"O=C(Nc1ncc2c(n1)CCN(S(=O)(=O)c1ccc(OC(F)(F)F)cc1)C2)c1ccc(Cl)c(Cl)c1 [Example 134, 3,4-dichloro-N-[6-(4-trifluoromethoxy-benzenesulfonyl)-5,6,7,8-tetrahydro-pyrido[4,3-d]pyrimidin-2-yl]-benzamide]",58%,59%

SMILES,inhibition at 10 µM [1],inhibition at 1 µM [2],inhibition at 10 µM [3]
"CCOc1ccccc1C(=O)Nc1ncc2c(n1)CCN(C(=O)c1sccc1Cl)C2 [Example 145, N-[6-(3-chloro-thiophene-2-carbonyl)-5,6,7,8-tetrahydro-pyrido[4,3-d]pyrimidin-2-yl]-2-ethoxy-benzamide]",84.4%,,
"COc1cccc(C(=O)Nc2ncc3c(n2)CCN(S(=O)(=O)c2cc(Br)ccc2OC)C3)c1 [Example 129, N-[6-(5-bromo-2-methoxy-benzenesulfonyl)-5,6,7,8-tetrahydro-pyrido[4,3-d]pyrimidin-2-yl]-3-methoxy-benzamide]",51.1%,,
"O=C(Nc1ncc2c(n1)CCN(C(=O)CCC1CCCC1)C2)c1ccncc1 [Example 132, N-[6-(3-cyclopentyl-propionyl)-5,6,7,8-tetrahydro-pyrido[4,3-d]pyrimidin-2-yl]-isonicotinamide]",58.1%,,
"CC(C)C(NC(=O)OCC1c2ccccc2-c2ccccc21)C(=O)NC1CCc2nc(NC(=O)c3cccs3)ncc2C1 (stereo not shown) [Example 139, (2-methyl-1-{2-[(thiophene-2-carbonyl)-amino]-5,6,7,8-tetrahydro-quinazolin-6-ylcarbamoyl}-propyl)-carbamic acid 9H-fluoren-9-ylmethyl ester]",31%,,
